{
  "source": "patent US20260256792A1",
  "about": "“TREATMENT OF CHRONIC SPONTANEOUS URTICARIA BY ADMINISTERING (R)-2-[3-[4-AMINO-3-(2-FLUORO-4-PHENOXY-PHENYL)PYRAZOLO[3,4-D]PYRIMIDIN-1-YL]PIPERIDINE-1-CARBONYL]-4-METHYL-4-[4-(OXETAN-3-YL)PIPERAZIN-1-YL]PENT-2-ENENITRILE” (priority 2023, published 2026)",
  "tested_on": "moderate-to-severe chronic spontaneous urticaria (CSU)",
  "experiment": "Phase 2 CSU study: urticaria activity score over 7 days (UAS7)",
  "format": "in vivo, human",
  "conditions": "ITT",
  "from_the_text": "The study comprises a 12 week, randomized, double-blind, placebo-controlled, multi-center, dose-ranging efficacy and safety phase, followed by a 40 week open label extension (OLE) phase (see FIG. 1). The study consists of three phases and an optional OLE phase. […] Clinically, CSU is characterized by the spontaneous and recurrent appearance of pruritic hives. The proposed primary endpoints were the UAS7 at Week 12 in EU and EU reference countries and the ISS7 in the US. Regardless of where a participant was from, all assessments were the same. The UAS7 score is a composite score containing both the HSS7 and the ISS7. This allowed a global assessment of the two key components of urticaria: hives and itch. […] The UAS is a validated PRO measure. […] The daily UAS scores range from 0 to 6 point/day. […] Patients were to complete the UAS using the e-diary. […] The following secondary endpoints were to be analyzed using the same approach as for the primary endpoint: • Change from baseline in UAS7 at Week 4 • Change from baseline in UAS7 at Week 12 (for US and US reference countries) • Change from baseline in ISS7 at Week 12 (except US and US reference countries) • Change from baseline in HSS7 at Week 12 The following responder secondary endpoints were to be analyzed using the Cochran-Mantel-Haenszel test adjusted by region: • Proportion of participants with UAS7<6 at Week 12 • Proportion of participants with UAS7=0 at Week 12 Participants who received selected prohibited medications and/or rescue medications were to be considered as non-responders for time points after the medication usage. For other participants, all available data including those collected during the off-treatment period were to be used to determine the responder/non-responder status. Missing data were to be considered as non-responders.",
  "data": [
    {"smiles": "CC(C)(C=C(C#N)C(=O)N1CCC[C@@H](n2nc(-c3ccc(Oc4ccccc4)cc3F)c3c(N)ncnc32)C1)N1CCN(C2COC2)CC1", "note": "[rilzabrutinib, (R)-2-[3-[4-amino-3-(2-fluoro-4-phenoxy-phenyl)pyrazolo[3,4-d]pyrimidin-1-yl]piperidine-1-carbonyl]-4-methyl-4-[4-(oxetan-3-yl)piperazin-1-yl]pent-2-enenitrile]", "values": [
      {"measurement": "Non-responder n (%), UAS7 ≤6", "setting": "400 mg BID, Week 11", "result": "28 (68.3) n (%)"},
      {"measurement": "OR for rilzabrutinib vs. placebo, UAS7 = 0", "setting": "400 mg BID, Week 11", "result": 2.892},
      {"measurement": "OR for rilzabrutinib vs. placebo, UAS7 ≤6", "setting": "400 mg BID, Week 11", "result": 1.991},
      {"measurement": "RRD (%) for rilzabrutinib vs. placebo, UAS7 = 0", "setting": "400 mg BID, Week 11", "result": 8.2, "unit": "%"},
      {"measurement": "RRD (%) for rilzabrutinib vs. placebo, UAS7 ≤6", "setting": "400 mg BID, Week 11", "result": 11.8, "unit": "%"},
      {"measurement": "Responder n (%), UAS7 = 0", "setting": "400 mg BID, Week 11", "result": "6 (14.6) n (%)"},
      {"measurement": "Responder n (%), UAS7 ≤6", "setting": "400 mg BID, Week 11", "result": "13 (31.7) n (%)"},
      {"measurement": "Imputed non-responder n (%), UAS7 = 0", "setting": "400 mg BID, Week 12", "result": "14 (34.1) n (%)"},
      {"measurement": "Imputed non-responder n (%), UAS7 ≤6", "setting": "400 mg BID, Week 12", "result": "14 (34.1) n (%)"},
      {"measurement": "Non-responder n (%), UAS7 = 0", "setting": "400 mg BID, Week 12", "result": "33 (80.5) n (%)"},
      {"measurement": "Non-responder n (%), UAS7 ≤6", "setting": "400 mg BID, Week 12", "result": "31 (75.6) n (%)"},
      {"measurement": "OR for rilzabrutinib vs. placebo, UAS7 = 0", "setting": "400 mg BID, Week 12", "result": 1.511},
      {"measurement": "OR for rilzabrutinib vs. placebo, UAS7 ≤6", "setting": "400 mg BID, Week 12", "result": 2.067},
      {"measurement": "RRD (%) for rilzabrutinib vs. placebo, UAS7 ≤6", "setting": "400 mg BID, Week 12", "result": 10.0, "unit": "%"},
      {"measurement": "Responder n (%), UAS7 = 0", "setting": "400 mg BID, Week 12", "result": "8 (19.5) n (%)"},
      {"measurement": "Responder n (%), UAS7 ≤6", "setting": "400 mg BID, Week 12", "result": "10 (24.4) n (%)"},
      {"measurement": "Imputed non-responder n (%), UAS7 = 0", "setting": "400 mg QPM, Week 1", "result": "0 n (%)"},
      {"measurement": "Imputed non-responder n (%), UAS7 ≤6", "setting": "400 mg QPM, Week 1", "result": "0 n (%)"},
      {"measurement": "Non-responder n (%), UAS7 = 0", "setting": "400 mg QPM, Week 1", "result": "38 (100) n (%)"},
      {"measurement": "Non-responder n (%), UAS7 ≤6", "setting": "400 mg QPM, Week 1", "result": "36 (94.7) n (%)"},
      {"measurement": "OR for rilzabrutinib vs. placebo, UAS7 = 0", "setting": "400 mg QPM, Week 1", "result": "0.000 (NE,"},
      {"measurement": "OR for rilzabrutinib vs. placebo, UAS7 ≤6", "setting": "400 mg QPM, Week 1", "result": 1.099},
      {"measurement": "RRD (%) for rilzabrutinib vs. placebo, UAS7 = 0", "setting": "400 mg QPM, Week 1", "result": "−2.6", "unit": "%"},
      {"measurement": "RRD (%) for rilzabrutinib vs. placebo, UAS7 ≤6", "setting": "400 mg QPM, Week 1", "result": 0.4, "unit": "%"},
      {"measurement": "Responder n (%), UAS7 = 0", "setting": "400 mg QPM, Week 1", "result": "0 n (%)"},
      {"measurement": "Responder n (%), UAS7 ≤6", "setting": "400 mg QPM, Week 1", "result": "2 (5.3) n (%)"},
      {"measurement": "Imputed non-responder n (%), UAS7 = 0", "setting": "400 mg QPM, Week 2", "result": "0 n (%)"},
      {"measurement": "Imputed non-responder n (%), UAS7 ≤6", "setting": "400 mg QPM, Week 2", "result": "0 n (%)"},
      {"measurement": "Non-responder n (%), UAS7 = 0", "setting": "400 mg QPM, Week 2", "result": "38 (100) n (%)"},
      {"measurement": "Non-responder n (%), UAS7 ≤6", "setting": "400 mg QPM, Week 2", "result": "37 (97.4) n (%)"},
      {"measurement": "OR for rilzabrutinib vs. placebo, UAS7 = 0", "setting": "400 mg QPM, Week 2", "result": "0.000 (NE,"},
      {"measurement": "OR for rilzabrutinib vs. placebo, UAS7 ≤6", "setting": "400 mg QPM, Week 2", "result": 0.517},
      {"measurement": "RRD (%) for rilzabrutinib vs. placebo, UAS7 = 0", "setting": "400 mg QPM, Week 2", "result": "−2.6", "unit": "%"},
      {"measurement": "RRD (%) for rilzabrutinib vs. placebo, UAS7 ≤6", "setting": "400 mg QPM, Week 2", "result": "−2.3", "unit": "%"},
      {"measurement": "Responder n (%), UAS7 = 0", "setting": "400 mg QPM, Week 2", "result": "0 n (%)"},
      {"measurement": "Responder n (%), UAS7 ≤6", "setting": "400 mg QPM, Week 2", "result": "1 (2.6) n (%)"},
      {"measurement": "Imputed non-responder n (%), UAS7 = 0", "setting": "400 mg QPM, Week 3", "result": "0 n (%)"},
      {"measurement": "Imputed non-responder n (%), UAS7 ≤6", "setting": "400 mg QPM, Week 3", "result": "0 n (%)"},
      {"measurement": "Non-responder n (%), UAS7 = 0", "setting": "400 mg QPM, Week 3", "result": "38 (100) n (%)"},
      {"measurement": "Non-responder n (%), UAS7 ≤6", "setting": "400 mg QPM, Week 3", "result": "36 (94.7) n (%)"},
      {"measurement": "OR for rilzabrutinib vs. placebo, UAS7 = 0", "setting": "400 mg QPM, Week 3", "result": "0.000 (NE,"},
      {"measurement": "OR for rilzabrutinib vs. placebo, UAS7 ≤6", "setting": "400 mg QPM, Week 3", "result": 0.553},
      {"measurement": "RRD (%) for rilzabrutinib vs. placebo, UAS7 = 0", "setting": "400 mg QPM, Week 3", "result": "−2.6", "unit": "%"},
      {"measurement": "RRD (%) for rilzabrutinib vs. placebo, UAS7 ≤6", "setting": "400 mg QPM, Week 3", "result": "−3.9", "unit": "%"},
      {"measurement": "Responder n (%), UAS7 = 0", "setting": "400 mg QPM, Week 3", "result": "0 n (%)"},
      {"measurement": "Responder n (%), UAS7 ≤6", "setting": "400 mg QPM, Week 3", "result": "2 (5.3) n (%)"},
      {"measurement": "Imputed non-responder n (%), UAS7 = 0", "setting": "400 mg QPM, Week 4", "result": "1 (2.6) n (%)"},
      {"measurement": "Imputed non-responder n (%), UAS7 ≤6", "setting": "400 mg QPM, Week 4", "result": "1 (2.6) n (%)"},
      {"measurement": "Non-responder n (%), UAS7 = 0", "setting": "400 mg QPM, Week 4", "result": "38 (100) n (%)"},
      {"measurement": "Non-responder n (%), UAS7 ≤6", "setting": "400 mg QPM, Week 4", "result": "36 (94.7) n (%)"},
      {"measurement": "OR for rilzabrutinib vs. placebo, UAS7 = 0", "setting": "400 mg QPM, Week 4", "result": "0.000 (NE,"},
      {"measurement": "OR for rilzabrutinib vs. placebo, UAS7 ≤6", "setting": "400 mg QPM, Week 4", "result": 0.432},
      {"measurement": "RRD (%) for rilzabrutinib vs. placebo, UAS7 = 0", "setting": "400 mg QPM, Week 4", "result": "−4.8", "unit": "%"},
      {"measurement": "RRD (%) for rilzabrutinib vs. placebo, UAS7 ≤6", "setting": "400 mg QPM, Week 4", "result": "−6.0", "unit": "%"},
      {"measurement": "Responder n (%), UAS7 = 0", "setting": "400 mg QPM, Week 4", "result": "0 n (%)"},
      {"measurement": "Responder n (%), UAS7 ≤6", "setting": "400 mg QPM, Week 4", "result": "2 (5.3) n (%)"},
      {"measurement": "Imputed non-responder n (%), UAS7 = 0", "setting": "400 mg QPM, Week 5", "result": "2 (5.3) n (%)"},
      {"measurement": "Imputed non-responder n (%), UAS7 ≤6", "setting": "400 mg QPM, Week 5", "result": "2 (5.3) n (%)"},
      {"measurement": "Non-responder n (%), UAS7 = 0", "setting": "400 mg QPM, Week 5", "result": "37 (97.4) n (%)"},
      {"measurement": "Non-responder n (%), UAS7 ≤6", "setting": "400 mg QPM, Week 5", "result": "36 (94.7) n (%)"},
      {"measurement": "OR for rilzabrutinib vs. placebo, UAS7 = 0", "setting": "400 mg QPM, Week 5", "result": 1.000},
      {"measurement": "OR for rilzabrutinib vs. placebo, UAS7 ≤6", "setting": "400 mg QPM, Week 5", "result": 1.065},
      {"measurement": "RRD (%) for rilzabrutinib vs. placebo, UAS7 = 0", "setting": "400 mg QPM, Week 5", "result": 0.0, "unit": "%"},
      {"measurement": "RRD (%) for rilzabrutinib vs. placebo, UAS7 ≤6", "setting": "400 mg QPM, Week 5", "result": 0.3, "unit": "%"},
      {"measurement": "Responder n (%), UAS7 = 0", "setting": "400 mg QPM, Week 5", "result": "1 (2.6) n (%)"},
      {"measurement": "Responder n (%), UAS7 ≤6", "setting": "400 mg QPM, Week 5", "result": "2 (5.3) n (%)"}
    ]}
  ]
}
